Results as given in the CheMixHub viscosity set.

Experiment: xn = mol fraction of the nth substance listed

Cc1ccccc1C + CCC(C)O
308.15 K, 101 kPa
Details | viscosity [mPa·s]
x2 = 0.0648 | 0.655
x2 = 0.1275 | 0.663
x2 = 0.2083 | 0.681
x2 = 0.3048 | 0.679
x2 = 0.3787 | 0.715
x2 = 0.4323 | 0.742
x2 = 0.5015 | 0.796
x2 = 0.6005 | 0.879
x2 = 0.6944 | 1.048
x2 = 0.7978 | 1.265
x2 = 0.9485 | 1.751

OCCOCCOCCO + CCC(C)O
viscosity [mPa·s], 100 kPa
Details | x1 = 0.0808 | x1 = 0.1599 | x1 = 0.2399 | x1 = 0.35 | x1 = 0.44 | x1 = 0.5558 | x1 = 0.6502 | x1 = 0.7399 | x1 = 0.8502 | x1 = 0.94
293.15 K | 5.57 | 7.33 | 9.21 | 12.23 | 15.18 | 19.7 | 24.16 | 29.07 | 36.18 | 43.08
298.15 K | 4.23 | 5.59 | 7 | 9.31 | 11.53 | 14.96 | 18.37 | 22.16 | 27.73 | 33.06
303.15 K | 3.68 | 4.84 | 6.08 | 7.92 | 9.7 | 12.38 | 15.03 | 17.95 | 22.19 | 26.32
308.15 K | 3.18 | 4.17 | 5.17 | 6.64 | 7.98 | 10.05 | 12.09 | 14.34 | 17.76 | 21
313.15 K | 2.58 | 3.33 | 4.17 | 5.42 | 6.58 | 8.32 | 10.01 | 11.91 | 14.65 | 17.26
318.15 K | 2.26 | 3.02 | 3.79 | 4.92 | 5.92 | 7.37 | 8.75 | 10.23 | 12.32 | 14.31
323.15 K | 1.94 | 2.54 | 3.17 | 4.12 | 4.97 | 6.23 | 7.4 | 8.65 | 10.4 | 11.99
